Results published in ChEMBL document CHEMBL1145709, “Seven New Polyacetylene Derivatives, Showing Both Potent Metamorphosis-Inducing Activity in Ascidian Larvae and Antifouling Activity Against Barnacle Larvae, from the Marine Sponge Callyspongia truncata” (1997).
Values after ≈ are worked out from the molar mass of the structure shown.

Key:
[1] = test system: Amphibalanus amphitrite; assay: Antifouling activity against Balanus amphitrite larvae; type: functional; conditions: for EC50: Amphibalanus amphitrite, read-out: ED50 (the source's name)
[2] = test system: Halocynthia roretzi; assay: Induction of metamorphosis in ascidian Halocynthia roretzi; type: functional; conditions: for EC50: Halocynthia roretzi, read-out: ED50 (the source's name)

EC50 [2]	Structure (SMILES)	EC50 [1]	ED100 [1]	ED100 [2]
30 µg/mL (≈ 109 µM)	C#C/C=C\CCCC#CC#CCCCCCC/C=C\C#C [CALLYTETRAYNE]	0.25 µg/mL (≈ 0.904 µM)	–	–
0.63 µg/mL (≈ 1.81 µM)	C#C/C=C\CCCC(O)/C=C/C#CC#CCCCC#CC#CC(O)CO (centres undefined) [CALLYTRIOL E]	0.13 µg/mL (≈ 0.373 µM)	–	–
0.43 µg/mL (≈ 1.23 µM)	C#C/C=C\CCCC/C=C\C#CC#CC(O)CCC#CC#CC(O)CO (centres undefined) [CALLYTRIOL A]	1.3 µg/mL (≈ 3.73 µM)	–	–
0.63 µg/mL (≈ 1.81 µM)	C#C/C=C\CCCC(O)/C=C\C#CC#CCCCC#CC#CC(O)CO (centres undefined) [CALLYTRIOL B]	1.3 µg/mL (≈ 3.73 µM)	–	–
–	C#CC#CCCCC#CC#C/C=C\CCCC/C=C\C#C [CALLYPENTAYNE]	0.25 µg/mL (≈ 0.918 µM)	–	–
–	C#C/C=C\CCCC/C=C\C#CC#CCCCC#CC#C[C@@H](O)COS(=O)(=O)[O-].[Na+] [CALLYSPONGIN B]	–	0.25 µg/mL	4.1 µg/mL
0.24 µg/mL (≈ 0.689 µM)	C#C/C=C\C(O)CCC/C=C\C#CC#CCCCC#CC#CC(O)CO (centres undefined) [CALLYTRIOL C]	0.13 µg/mL (≈ 0.373 µM)	–	–
0.38 µg/mL (≈ 1.09 µM)	C#C/C=C/C(O)CCC/C=C\C#CC#CCCCC#CC#CC(O)CO (centres undefined) [CALLYTRIOL D]	1.3 µg/mL (≈ 3.73 µM)	–	–
4.5 µg/mL (≈ 13.5 µM)	C#C/C=C\CCCC/C=C\C#CC#CCCCC#CC#C[C@@H](O)CO [SIPHONODIOL]	0.25 µg/mL (≈ 0.752 µM)	–	–
3.9 µg/mL	C#C/C=C\CCCC/C=C\C#CC#CCCCC#CC#C[C@H](COS(=O)(=O)[O-])OS(=O)(=O)[O-].[Na+].[Na+] [CALLYSPONGIN A]	0.13 µg/mL	–	–
